The record followed here is patent US20050175544A1, “Albuterol inhalation solution, system, kit and method for relieving symptoms of pediatric asthma” (Dey LP, priority 2001, published 2005).

Counter-ions that a name gives are not always drawn.

The test system of this test is children ages 6 to 12 with asthma. Nature of the test: 4-week randomized placebo-controlled trial of nebulized albuterol solution, efficacy by FEV1. The class given is in vivo. As to conditions: both unit doses; initial dose (Day 1) and after 4 weeks of treatment (Day 28).

Method: Patients were randomized to receive a nebulizer solution comprising either 0.63 mg/3 ml or 1.25 mg/3 ml of albuterol sulfate, or a placebo. The inhalation solution was administered via a Pari LC Plus™ nebulizer and a Pari PRONEB™ compressor. […] In this study, qualifying children ages 6 to 12 were randomized to receive 1 of the following three treatments twice daily (TD) for 4 weeks, each in 3.0 mL volume: (1) 1.25 mg albuterol sulfate inhalation solution; (2) 9.63 mg albuterol sulfate inhalation solution; or (3) placebo (saline). Each patient was provided with a personal compressor-driven PARI LC PLUS™ nebulizer, by Pari Respirator Equipment, Inc., Richmond, Va., for the duration of the study. […] The 4-week study period began with the initial dose, to be taken in the morning, administered at the study site. Pre-dose pulmonary function tests and pulmonary function tests 30 minutes after the end of nebulization and hourly thereafter for 6 hours were performed. After 11 days, patients returned for exchange of study medication and diaries and pulmonary function tests before and 30 minutes after the morning dosing. […] The safety profiles of each unit dose and placebo were determined by collecting vital signs (heart rate, blood pressure, respiration rate, and body temperature) as well as electrocardiograms. […]

In the case of `CC(C)(C)NCC(O)c1ccc(O)c(CO)c1` (stereo not drawn) [albuterol, α^1-[(tert-butylamino)methyl]-4-hydroxy-m-xylene-α,α′-diol sulfate (2:1)(salt)], the “Improvement in FEV1 compared to placebo (area under percent change from pre-dose FEV1 versus time curve)” value is “significant improvement”.
